Assay [1] concerns the target T1, Solute carrier family 15 member 1 (Homo sapiens, UniProt P46059).
T1 sequence (P46059 whole entry): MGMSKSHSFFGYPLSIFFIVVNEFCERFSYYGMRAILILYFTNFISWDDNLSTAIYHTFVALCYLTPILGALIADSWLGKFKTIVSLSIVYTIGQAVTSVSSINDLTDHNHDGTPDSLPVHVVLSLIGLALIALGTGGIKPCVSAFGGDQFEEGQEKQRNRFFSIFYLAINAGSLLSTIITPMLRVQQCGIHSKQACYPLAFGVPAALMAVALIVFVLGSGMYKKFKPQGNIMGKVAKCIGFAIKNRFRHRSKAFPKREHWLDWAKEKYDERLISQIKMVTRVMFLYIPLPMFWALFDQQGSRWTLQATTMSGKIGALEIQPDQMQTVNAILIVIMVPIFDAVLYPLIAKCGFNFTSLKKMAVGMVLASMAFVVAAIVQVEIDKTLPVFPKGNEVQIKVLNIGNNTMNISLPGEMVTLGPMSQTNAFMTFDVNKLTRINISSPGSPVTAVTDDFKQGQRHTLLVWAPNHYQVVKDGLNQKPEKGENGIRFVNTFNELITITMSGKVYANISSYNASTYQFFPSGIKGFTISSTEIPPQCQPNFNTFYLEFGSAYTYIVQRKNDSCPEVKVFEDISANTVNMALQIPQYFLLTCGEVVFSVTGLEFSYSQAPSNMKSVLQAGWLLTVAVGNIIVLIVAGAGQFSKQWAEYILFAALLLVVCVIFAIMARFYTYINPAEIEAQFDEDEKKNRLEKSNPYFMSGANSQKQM
The assay can be described thus: Affinity fo the compound against human Intestinal peptide transporter PepT1 in Caco-2 cells was measured as inhibition of [14C]Gly-Sar uptake. In kind it is cell-based. (Passage across Caco-2 layers is used to estimate intestinal permeability.)

The nature of assay [2]: Affinity against Renal peptide transporter PepT2 in SKPT cells was measured by the inhibition of [14C]Gly-Sar uptake. In kind it is cell-based, Rattus norvegicus.
For assay [3], the target named is T1, Solute carrier family 15 member 1. The assay can be described thus: Concentration required to inhibit the maximum [14C]Gly-Sar uptake by human Intestinal peptide transporter PepT1 in Caco-2 cells. In kind it is cell-based.
Assay [4] in a line: Concentration required to inhibit the maximum [14C]Gly-Sar uptake by Renal peptide transporter PepT2 in SKPT cells. In kind it is cell-based. Particulars: Rattus norvegicus.

Peptide text beside a SMILES is read from it.

In general, Ki refers to a measure of affinity in units of concentration, obtained from inhibition or displacement. Low readings indicate a stronger hold on the target, high ones a looser hold on the target. A word on the IC50: it is the concentration that gives 50% inhibition. The low end stands for inhibition by little substance, the high end for a need for much substance.

Consider `N[C@@H](Cc1ccccc1)[C@@H](O)/C=C/C(=O)O`, for which the inhibition constant Ki in assay [1] is 39800 µM; in assay [2] it was 1350 µM. Further, the IC50 was 40500 µM in assay [3] and 1590 µM in assay [4].
For `N[C@@H](Cc1ccccc1)C(=O)CCC(=O)O` the same measures were 400 µM, 18.8 µM, 400 µM and 22.2 µM.
Take `N[C@@H](Cc1ccccc1)C(=O)NCC(=O)O` (H-Phe-Gly-OH): the values for the Ki in assay [1] and in assay [2] were 200 µM and 14.6 µM, respectively. Besides, the half-maximal inhibitory concentration (IC50) in assay [3] was found to be 200 µM; in assay [4], 17.2 µM.
Take `N[C@@H](Cc1ccccc1)[C@@H](O)CCC(=O)O`: the affinity in assay [2], expressed as Ki, was 6920 µM. In assay [4], this molecule had an IC50 of 8180 µM.
For `N[C@@H](Cc1ccccc1)[C@H](O)CCC(=O)O`, the Ki in assay [2] came out at 7450 µM. In assay [4], this molecule gave an IC50 of 8800 µM.
Take `CC1=C(C(=O)O)N2C(=O)[C@@H](NC(=O)[C@H](N)c3ccccc3)[C@H]2SC1` [CEPHALEXIN ANHYDROUS]: the Ki in assay [2] is 35.2 µM. Also, 41.6 µM corresponded to half-maximal inhibition in assay [4] (IC50).
On to `N[C@@H](Cc1ccccc1)[C@H](O)/C=C/C(=O)O`, for which the inhibition constant Ki in assay [1] turned out to be 26400 µM; in assay [2] it was 3480 µM. In addition, the IC50 was found to be 26800 µM in assay [3] and 4110 µM in assay [4].

These data come from ChEMBL document CHEMBL1149319, “Phe-Gly dipeptidomimetics designed for the di-/tripeptide transporters PEPT1 and PEPT2: synthesis and biological investigations” (J Med Chem, 2004).
